Experimental findings from patent US9976141B2, “Compositions and methods for inhibiting gene expression of Hif2alpha” (Arrowhead Madison Inc., priority 2015, dated 2018) are described below.

Strand notation (5' to 3'): a small letter for the sugar, then the base; units joined by * are phosphorothioate-linked, units joined directly phosphodiester-linked; [ ] holds rarer units or linkages, { } end groups; capitals alone tell only the bases. d = 2'-deoxy (DNA); m = 2'-O-methyl; f = 2'-fluoro

This data set relates to human EPAS1 (Hif2α) cDNA in psiCHECK2 (Renilla luciferase/EPAS1 fusion mRNA) in Hep3B cells. In words: Efficacy screen of Hif2α RNAi triggers in vitro, dual-luciferase reporter assay (1 nM and 0.1 nM). The conditions noted are these: Hep3B cells co-transfected with EPAS1-psiCHECK2, Renilla luciferase normalized to firefly luciferase. The format is cell-based. From the text:
Candidate sequences were identified by in silico analysis and screened as chemically modified canonical siRNAs in vitro. For screening purposes, the human EPAS1 (Hif2α) cDNA sequence (accession #NM 001430) was synthesized and cloned (DNA 2.0, Menlo Park, Calif.) into a commercially-available reporter-based screening plasmid, psiCHECK2 (Promega, Madison, Wis.) which generated a Renilla luciferase/EPAS1 fusion mRNA. For RNAi trigger efficacy evaluation, Hep3B cells, a human hepatocellular carcinoma line, were plated at 10,000 cells per well in 96-well format. Each of the 187 EPAS1 RNAi triggers, in two subsets, was co-transfected at two concentrations, 1 nM and 0.1 nM, with 25 ng EPAS1-psiCHECK2 plasmid DNA per well and 0.2 μL LipoFectamine 2000 (Life Technologies) per well. Gene knockdown was determined by measuring Renilla luciferase levels normalized to the levels of constitutively-expressed firefly luciferase, also present on the psiCHECK-2 plasmid, using the Dual Luciferase Reporter Assay (Promega, Madison, Wis.) Table 5.
Background: Reporter assays use an easily measured gene product as a stand-in for the process of interest.

As for “2261 (sense fAmGfGmCfCmGfUmAfCmUfGmUfCmAfAmCfCmUfAdT; antisense dTfAmGfGmUfUmGfAmCfAmGfUmAfCmGfGmCfCmUdT*dT; siRNA) [compound 2261]”, the “Relative Rluc-Hif2α” value (0.1 nM RNAi trigger) came out at 0.568 ± 0.065 and the “Relative Rluc-Hif2α” value (1 nM RNAi trigger) is recorded as 0.657 ± 0.067.
For “2262 (sense fUmCfCmUfCmAfCmAfAmUfAmGfUmCfUmGfUmGfAdT; antisense dTfCmAfCmAfGmAfCmUfAmUfUmGfUmGfAmGfGmAdT*dT; siRNA) [compound 2262]” the same measures were 0.755 ± 0.031 and 0.277 ± 0.071.
Take “2263 (sense fAmAfUmAfGmUfCmUfGmUfGmUfGmGfCmUfAmCfAdT; antisense dTfGmUfAmGfCmCfAmCfAmCfAmGfAmCfUmAfUmUdT*dT; siRNA) [compound 2263]”: the “Relative Rluc-Hif2α” value runs as follows: (0.1 nM RNAi trigger) 1.126 ± 0.083; (1 nM RNAi trigger) 0.875 ± 0.059.
With “2264 (sense fCmAfGmAfAmCfUmGfAmUfUmGfGmUfUmAfCmCfAdT; antisense dTfGmGfUmAfAmCfCmAfAmUfCmAfGmUfUmCfUmGdT*dT; siRNA) [compound 2264]”, the “Relative Rluc-Hif2α” value is listed as 0.381 ± 0.023 (0.1 nM RNAi trigger) and 0.183 ± 0.019 (1 nM RNAi trigger).
As for “2265 (sense fAmGfAmAfCmUfGmAfUmUfGmGfUmUfAmCfCmAfAdT; antisense dTfUmGfGmUfAmAfCmCfAmAfUmCfAmGfUmUfCmUdT*dT; siRNA) [compound 2265]”, the “Relative Rluc-Hif2α” value came to 0.448 ± 0.042 (0.1 nM RNAi trigger) and 0.186 ± 0.045 (1 nM RNAi trigger).
On the same counts, the results for “2266 (sense fCmUfGmAfUmUfGmGfUmUfAmCfCmAfCmCfCmUfAdT; antisense dTfAmGfGmGfUmGfGmUfAmAfCmCfAmAfUmCfAmGdT*dT; siRNA) [compound 2266]” are 0.808 ± 0.062 and 0.368 ± 0.046.
Take “2267 (sense fUmUfGmGfCmCfGmCfUmCfAmGfCmCfUmAfUmGfAdT; antisense dTfCmAfUmAfGmGfCmUfGmAfGmCfGmGfCmCfAmAdT*dT; siRNA) [compound 2267]”: the “Relative Rluc-Hif2α” value was 1.029 ± 0.104 (0.1 nM RNAi trigger) and 0.651 ± 0.049 (1 nM RNAi trigger).
Take “2268 (sense fUmAfUmGfAmAfUmUfCmUfAmCfCmAfUmGfCmGfAdT; antisense dTfCmGfCmAfUmGfGmUfAmGfAmAfUmUfCmAfUmAdT*dT; siRNA) [compound 2268]”: the “Relative Rluc-Hif2α” value worked out at 0.409 ± 0.023 (0.1 nM RNAi trigger) and 0.210 ± 0.037 (1 nM RNAi trigger).
Consider “2269 (sense fAmUfGmAfAmUfUmCfUmAfCmCfAmUfGmCfGmCfAdT; antisense dTfGmCfGmCfAmUfGmGfUmAfGmAfAmUfUmCfAmUdT*dT; siRNA) [compound 2269]”, for which the “Relative Rluc-Hif2α” value (0.1 nM RNAi trigger) came out at 0.530 ± 0.097 and the “Relative Rluc-Hif2α” value (1 nM RNAi trigger) is reported as 0.302 ± 0.080.
For “2270 (sense fUmGfAmAfUmUfCmUfAmCfCmAfUmGfCmGfCmUfAdT; antisense dTfAmGfCmGfCmAfUmGfGmUfAmGfAmAfUmUfCmAdT*dT; siRNA) [compound 2270]”, the “Relative Rluc-Hif2α” value worked out at 0.658 ± 0.149 (0.1 nM RNAi trigger) and 0.613 ± 0.147 (1 nM RNAi trigger).
Regarding “2271 (sense fGmAfAmUfUmCfUmAfCmCfAmUfGmCfGmCfUmAfAdT; antisense dTfUmAfGmCfGmCfAmUfGmGfUmAfGmAfAmUfUmCdT*dT; siRNA) [compound 2271]”, the “Relative Rluc-Hif2α” value is, setting by setting: (0.1 nM RNAi trigger) 1.056 ± 0.291; (1 nM RNAi trigger) 0.930 ± 0.094.
As for “2272 (sense fAmAfUmUfCmUfAmCfCmAfUmGfCmGfCmUfAmGfAdT; antisense dTfCmUfAmGfCmGfCmAfUmGfGmUfAmGfAmAfUmUdT*dT; siRNA) [compound 2272]”, the “Relative Rluc-Hif2α” value is, setting by setting: (0.1 nM RNAi trigger) 1.028 ± 0.281; (1 nM RNAi trigger) 0.864 ± 0.197.
With “2273 (sense fUmCfUmAfCmCfAmUfGmCfGmCfUmAfGmAfCmUfAdT; antisense dTfAmGfUmCfUmAfGmCfGmCfAmUfGmGfUmAfGmAdT*dT; siRNA) [compound 2273]”, the “Relative Rluc-Hif2α” value by setting is: (0.1 nM RNAi trigger) 0.574 ± 0.033; (1 nM RNAi trigger) 0.588 ± 0.057.
For the substance “2274 (sense fAmUfGmCfGmCfUmAfGmAfCmUfCmCfGmAfGmAfAdT; antisense dTfUmCfUmCfGmGfAmGfUmCfUmAfGmCfGmCfAmUdT*dT; siRNA) [compound 2274]”, the “Relative Rluc-Hif2α” value (0.1 nM RNAi trigger) amounted to 0.870 ± 0.108 and the “Relative Rluc-Hif2α” value (1 nM RNAi trigger) amounted to 0.506 ± 0.074.
Consider “2275 (sense fUmGfCmGfCmUfAmGfAmCfUmCfCmGfAmGfAmAfAdT; antisense dTfUmUfCmUfCmGfGmAfGmUfCmUfAmGfCmGfCmAdT*dT; siRNA) [compound 2275]”, for which the “Relative Rluc-Hif2α” value was 0.515 ± 0.264 (0.1 nM RNAi trigger) and 0.464 ± 0.048 (1 nM RNAi trigger).
For “2276 (sense fGmUfAmAfGmUfGmGfCmCfAmGfUmAfCmCfGmGfAdT; antisense dTfCmCfGmGfUmAfCmUfGmGfCmCfAmCfUmUfAmCdT*dT; siRNA) [compound 2276]”, the “Relative Rluc-Hif2α” value reads like this: (0.1 nM RNAi trigger) 0.543 ± 0.029; (1 nM RNAi trigger) 0.330 ± 0.080.
On the same counts, the results for “2277 (sense fUmAfAmGfUmGfGmCfCmAfGmUfAmCfCmGfGmAfAdT; antisense dTfUmCfCmGfGmUfAmCfUmGfGmCfCmAfCmUfUmAdT*dT; siRNA) [compound 2277]” are 0.625 ± 0.384 and 0.702 ± 0.091.
For “2278 (sense fCmCfAmGfUmAfCmCfGmGfAmUfGmCfUmCfGmCfAdT; antisense dTfGmCfGmAfGmCfAmUfCmCfGmGfUmAfCmUfGmGdT*dT; siRNA) [compound 2278]”, the “Relative Rluc-Hif2α” value runs as follows: (0.1 nM RNAi trigger) 0.947 ± 0.044; (1 nM RNAi trigger) 0.564 ± 0.070.
“2279 (sense fAmGfUmAfCmCfGmGfAmUfGmCfUmCfGmCfAmAfAdT; antisense dTfUmUfGmCfGmAfGmCfAmUfCmCfGmGfUmAfCmUdT*dT; siRNA) [compound 2279]”: the “Relative Rluc-Hif2α” value is on record as 0.506 ± 0.086 (0.1 nM RNAi trigger) and 0.280 ± 0.042 (1 nM RNAi trigger).
As for “2280 (sense fUmAfCmCfGmGfAmUfGmCfUmCfGmCfAmAfAmGfAdT; antisense dTfCmUfUmUfGmCfGmAfGmCfAmUfCmCfGmGfUmAdT*dT; siRNA) [compound 2280]”, the “Relative Rluc-Hif2α” value stood at 0.871 ± 0.147 (0.1 nM RNAi trigger) and 0.911 ± 0.086 (1 nM RNAi trigger).
Take “2281 (sense fUmGfCmUfCmGfCmAfAmAfGmCfAmUfGmGfGmGfAdT; antisense dTfCmCfCmCfAmUfGmCfUmUfUmGfCmGfAmGfCmAdT*dT; siRNA) [compound 2281]”: the “Relative Rluc-Hif2α” value (0.1 nM RNAi trigger) was determined as 0.914 ± 0.177 and the “Relative Rluc-Hif2α” value (1 nM RNAi trigger) was 0.651 ± 0.041.
Turning to “2282 (sense fCmGfCmAfAmAfGmCfAmUfGmGfGmGfGmCfUmAfAdT; antisense dTfUmAfGmCfCmCfCmCfAmUfGmCfUmUfUmGfCmGdT*dT; siRNA) [compound 2282]”, the “Relative Rluc-Hif2α” value (0.1 nM RNAi trigger) came to 1.209 ± 0.132 and the “Relative Rluc-Hif2α” value (1 nM RNAi trigger) came to 0.824 ± 0.155.
With “2283 (sense fAmGfCmAfUmGfGmGfGmGfCmUfAmCfGmUfGmUfAdT; antisense dTfAmCfAmCfGmUfAmGfCmCfCmCfCmAfUmGfCmUdT*dT; siRNA) [compound 2283]”, the “Relative Rluc-Hif2α” value is, setting by setting: (0.1 nM RNAi trigger) 1.175 ± 0.194; (1 nM RNAi trigger) 0.882 ± 0.026.
For “2284 (sense fGmCfAmUfGmGfGmGfGmCfUmAfCmGfUmGfUmGfAdT; antisense dTfCmAfCmAfCmGfUmAfGmCfCmCfCmCfAmUfGmCdT*dT; siRNA) [compound 2284]” the same measures were 1.227 ± 0.266 and 0.787 ± 0.062.
Take “2285 (sense fCmAfUmCfUmAfCmAfAmCfCmCfUmCfGmCfAmAfAdT; antisense dTfUmUfGmCfGmAfGmGfGmUfUmGfUmAfGmAfUmGdT*dT; siRNA) [compound 2285]”: the “Relative Rluc-Hif2α” value is 1.109 ± 0.247 (0.1 nM RNAi trigger) and 0.723 ± 0.088 (1 nM RNAi trigger).
Regarding “2286 (sense fAmUfCmUfAmCfAmAfCmCfCmUfCmGfCmAfAmCfAdT; antisense dTfGmUfUmGfCmGfAmGfGmGfUmUfGmUfAmGfAmUdT*dT; siRNA) [compound 2286]”, the “Relative Rluc-Hif2α” value is, setting by setting: (0.1 nM RNAi trigger) 1.291 ± 0.367; (1 nM RNAi trigger) 0.878 ± 0.078.
On to “2287 (sense fCmUfAmCfAmAfCmCfCmUfCmGfCmAfAmCfCmUfAdT; antisense dTfAmGfGmUfUmGfCmGfAmGfGmGfUmUfGmUfAmGdT*dT; siRNA) [compound 2287]”, for which the “Relative Rluc-Hif2α” value (0.1 nM RNAi trigger) turned out to be 0.871 ± 0.102 and the “Relative Rluc-Hif2α” value (1 nM RNAi trigger) was determined as 0.751 ± 0.011.
For the substance “2288 (sense fUmAfCmAfAmCfCmCfUmCfGmCfAmAfCmCfUmGfAdT; antisense dTfCmAfGmGfUmUfGmCfGmAfGmGfGmUfUmGfUmAdT*dT; siRNA) [compound 2288]”, the “Relative Rluc-Hif2α” value was found to be 0.943 ± 0.029 (0.1 nM RNAi trigger) and 0.932 ± 0.118 (1 nM RNAi trigger).
Regarding “2289 (sense fUmUfUmGfAmUfAmGfCmAfGmUfGmGfCmAfAmGfAdT; antisense dTfCmUfUmGfCmCfAmCfUmGfCmUfAmUfCmAfAmAdT*dT; siRNA) [compound 2289]”, the “Relative Rluc-Hif2α” value (0.1 nM RNAi trigger) worked out at 0.992 ± 0.153 and the “Relative Rluc-Hif2α” value (1 nM RNAi trigger) came out at 1.039 ± 0.146.
For “2290 (sense fAmGfUmAfAmCfUmUfCmCfUmAfUmUfCmAfCmCfAdT; antisense dTfGmGfUmGfAmAfUmAfGmGfAmAfGmUfUmAfCmUdT*dT; siRNA) [compound 2290]” the same measures were 0.698 ± 0.155 and 0.353 ± 0.036.
